ChEMBL document CHEMBL1157035, “Synthesis and biological evaluation of water-soluble organogermanium” (Eur J Med Chem, 2010)
The source made the active and inactive calls. The rule behind the calls is not given here.

Columns and labels:
Assay type in all cases: functional, organism-based
[1] = test system: Mus musculus; assay: Immunoregulatory activity in ICR mouse assessed as increase in serum IFN-gamma level at 300 mg/kg, po after 24 hrs by ELISA; parameters: dose 300 mg/kg
[2] = test system: Mus musculus; assay: Immunoregulatory activity in ICR mouse assessed as increase in serum IFN-gamma level at 100 mg/kg, po after 12 hrs by ELISA; parameters: dose 100 mg/kg
[3] = test system: Mus musculus; assay: Immunoregulatory activity in ICR mouse assessed as increase in serum IFN-gamma level at 100 mg/kg, po after 12 to 24 hrs by ELISA; parameters: dose 100 mg/kg
[4] = test system: Mus musculus; assay: Immunoregulatory activity in po dosed ICR mouse assessed as increase in serum IFN-gamma level after 24 hrs by ELISA
[5] = test system: Mus musculus; assay: Immunoregulatory activity in ICR mouse assessed as increase in serum IFN-gamma level at 100 mg/kg, po after 24 hrs by ELISA; parameters: dose 100 mg/kg

Row | Substance | Activity [1] [pg/mL] | Activity [2] | Activity [3] | Activity [4] | Activity [5] [pg/mL]
1 | 6-O-[3-(trimethylgermyI)propyl]-beta-D-glucopyranoside | 600 | inactive | Active | Dose-dependent effect | 
2 | GERMANIUM SESQUIOXIDE |  | inactive | Active |  | 320
